Data on 3 molecules can be found in BindingDB's records for doi:10.1016/j.bmcl.2007.05.099 (Southern Research Institute, 2007).

This experiment can be described thus: Inhibition of Mycobacterium smegmatis arabinosyl transferase assessed as [14C]arabinofuranose incorporation.

For `O[C@H]1[C@H](O)[C@@H](CN(CC2CCCCC2)CC2CCCCC2)O[C@@H]1CC[C@H]1O[C@H](CN(CC2CCCCC2)CC2CCCCC2)[C@@H](O)[C@@H]1O` [(2R,3S,4S,5R)-2-((bis(cyclohexylmethyl)amino)methyl)-5-(2-((2R,3S,4S,5R)-5-((bis(cyclohexylmethyl)amino)methyl)-3,4-dihydroxy-tetrahydrofuran-2-yl)ethyl)-tetrahydrofuran-3,4-diol], the IC50 is 3.44 mM.
Regarding `O[C@H]1[C@H](O)[C@@H](CN(CC2CCCCC2)CC2CCCCC2)O[C@@H]1/C=C/[C@H]1O[C@H](CN(CC2CCCCC2)CC2CCCCC2)[C@@H](O)[C@@H]1O` [(2R,3S,4S,5R)-2-((bis(cyclohexylmethyl)amino)methyl)-5-(2-((2R,3S,4S,5R)-5-((bis(cyclohexylmethyl)amino)methyl)-3,4-dihydroxy-tetrahydrofuran-2-yl)vinyl)-tetrahydrofuran-3,4-diol], the IC50 was found to be 4.15 mM.
On to `O[C@@H]1[C@@H](OC[C@H]2O[C@H](CN(CC3CCCCC3)CC3CCCCC3)[C@@H](O)[C@@H]2O)O[C@H](CN(CC2CCCCC2)CC2CCCCC2)[C@H]1O` [(2R,3S,4S,5R)-2-((bis(cyclohexylmethyl)amino)methyl)-5-(((2S,3S,4S,5R)-5-((bis(cyclohexylmethyl)amino)methyl)-3,4-dihydroxy-tetrahydrofuran-2-yloxy)methyl)-tetrahydrofuran-3,4-diol], for which the IC50 came out at 2.8 mM.

One may read the IC50 as the midpoint of a concentration-inhibition curve.
